Series [1] concerns mice. As to conditions: mouse, in vivo, ip. How it is done:
(§1) The products to be studied were administered by the intraperitoneal route at increasing doses to batches of 10 mice. The mortality provoked by the products studied were noted during the 24 hours following administration of the product.
During the same experiments, the convulsivant threshold dose of the product is also noted, i.e. the minimum dose for which a convulsivant activity begins to be shown.
(§2) Three products of the prior art are given in this Table by way of comparison: […]

The nature of series [2]: Acute toxicity (mortality during 24 hours, i.p.). As to conditions: mouse, in vivo, ip. As for the experimental part: as §1
(§3) From the results obtained, the LD 50, i.e. the dose provoking the death of 50% of the animals studied, is determined for each of the products studied.
as §2

Series [3] concerns ptosis induced by reserpine. Description: Antagonism of the ptosis induced by reserpine. The format is in vivo, female mice CDI (Charles River). As to conditions: Mus musculus, ip, reserpine 2 mg/kg i.v. simultaneously, 1 hour. As for the experimental part: This test, described by GOURET (Journal de Pharmacologie (Paris), 1973, 4 (1), 105-128), was made on the female mice CDI (Charles River), weighing 20±1 g. The reserpine causes a ptosis one hour after intravenous administration thereof; certain antidepressants oppose this ptosis. The following protocol was chosen: The substances to be studied were administered by the i.p. route. […] One hour after administration of reserpine, the number of animals not presenting ptosis is noted. This test was carried out on batches of 10 mice, the results are expressed in percentage of animals not presenting ptosis and are the average of at least two experiments. By way of comparison, the results obtained with the three products of the prior art, Minaprine, CM 30070 and CM 30071 have also been indicated.

Another series concerns despair reaction. Description: Despair reaction (behavioral despair). The format is in vivo, female mouse, CDI (Charles River). Conditions: one hour before the test; for Behavioral Despair (change of immobility time): immobility between 2nd and 6th minute. As for the experimental part:
This test was carried out in the female mouse, CDI (Charles River), weighing 18 to 23 g, according to the method described by Porsolt (Archives Internationales de Pharmacodynamie, 1977, 229, 327-336). The principle of this test is as follows: when a mouse is placed in a narrow recipient, filled with water, it struggles, then, after 2 to 4 mins., it becomes still and floats on its stomach, its back rounded, its rear paws drawn up under its body and it makes only a few movements necessary for maintaining its head out of the water. This reaction is called the despair reaction. Certain psychotherapeutic agents, particularly the antidepressants, extend the time during which the mouse struggles. The following protocol was chosen: The products to be studied were administered by the i.p. route one hour before the test. For the test, the animals are placed in a narrow recipient (10×10×10 cm), filled with water, up to a height of 6 cm, the temperature of the water being 24° C.±2° C. […] Each substance was studied on a batch of 10 mice. The results are the average of at least two experiments.

Series [4] has as its system mice. Put plainly: Acute toxicity (mortality during 24 hours, i.p.). Conditions: mouse, in vivo, ip, 1440 min. As for the experimental part:
as §1, §3, §2

For series [5] the following is noted: in vivo; cited from earlier work.
The conditions of series [6]: per os; cited from earlier work.

Some results are limits rather than exact numbers.

What is called ED50 is the dose at which the effect has come halfway, by size or by number of responders.

With `NCCNc1nnccc1-c1ccccc1` [SR 95002], the Convulsivant threshold dose with mice [1] is given as 100 mg/kg. Besides, the LD50 at 24 h in series [2] was approximately 150 mg/kg.
Turning to `Cc1cc(-c2ccccc2)nnc1NCCCCN` [CM 30487, 3-(4-aminobutylamino)4-methyl 6-phenyl pyridazine], the Convulsivant threshold dose with mice [1] was more than 200 mg/kg. The compound further registered an LD50 at 24 h in series [2] (mice, 24 hours) of more than 200 mg/kg.
Turning to `Cc1cc(-c2ccccc2)nnc1NCCN(C)C` [CM 30071, reference compound], the ED50 in series [3] was approximately 50 mg/kg. The compound further registered a Convulsivant threshold dose with mice [1] of 100 mg/kg. Moreover, the “Behavioral Despair, result in words” value in the series with despair reaction (10 mg/kg i.p.) was “inactive”. Moreover, the LD50 in the series with mice [4] is 118 (101-139) mg/kg.
Turning to `Cc1cc(-c2ccccc2)nnc1NCCN` [CM 30099, 3-(2-Amino Ethylamino)4-Methyl 6-Phenyl Pyridazine], the 50% effect level in series [3] (ED50) was put at a dose of 16 mg/kg. In addition, in the series with mice [1], the Convulsivant threshold dose is reported as 200 mg/kg. In addition, the “Behavioral Despair (change of immobility time)” value in the series with despair reaction (10 mg/kg i.p.) is -50%. The LD50 at 24 h in series [2] (mice, 24 hours) was more than 200 mg/kg.
In the case of `NCCNc1cc(-c2ccccc2)cnn1` [SR 95086], the Convulsivant threshold dose in the series on mice [1] is more than 200 mg/kg. Besides, the LD50 at 24 h in series [2] was more than 200 mg/kg.
For `Cc1cc(-c2ccccc2)nnc1NCCN1CCOCC1` [Minaprine], in series [5], the “type of psychotherapeutic action” value is recorded as “"disinhibitory" activity”. Moreover, the ED50 in series [3] was determined as 5 mg/kg. For the same compound, the Convulsivant threshold dose in the series on mice [1] is 35 mg/kg. Further, in series [6], the “dose at which the product proves convulsivant” value is “higher than 100 mg/kg”. In addition, the “Behavioral Despair (change of immobility time)” value with despair reaction (10 mg/kg i.p.) is listed as -35%.
Take `NCCNc1ccc(-c2ccccc2)nn1` [SR 95085]: the Convulsivant threshold dose with mice [1] was more than 200 mg/kg. Further, in series [2], the LD50 at 24 h was more than 200 mg/kg.
In the series on mice [1], `CNCCNc1nnc(-c2ccccc2)cc1C` [SR 95029, 2-(2-Methylamino Ethylamino)4-Methyl 6-Phenyl Pyridazine] came in with a Convulsivant threshold dose of 200 mg/kg. Further, in series [2] (mice, 24 hours), the LD50 at 24 h is more than 200 mg/kg.
On to `Cc1cc(-c2ccccc2)nnc1NCCCN` [CM 30486, 3-(3-aminopropylamino)4-methyl 6-phenyl pyridazine], for which the ED50 in series [3] is approximately 10 mg/kg. In the series on mice [1], the Convulsivant threshold dose was more than 200 mg/kg. Besides, the “Behavioral Despair (change of immobility time)” value in the series on despair reaction (10 mg/kg i.p.) is listed as -20%. Further, the LD50 at 24 h in series [2] (mice, 24 hours) was more than 200 mg/kg.
In series [3], `CCN(CC)CCNc1nnc(-c2ccccc2)cc1C` [CM 30070, reference compound] came in with a 50% effective dose (ED50) of approximately 50 mg/kg. The compound also showed a Convulsivant threshold dose in the series on mice [1] of 60 mg/kg. In addition, in the series with despair reaction (25 mg/kg i.p.), the “Behavioral Despair, result in words” value was “inactive”. For the same compound, in series [2], the LD50 at 24 h is 80 mg/kg.
Compound `Cc1cc(-c2ccc(O)cc2)nnc1NCCN` [SR 95073, 3-(2-Amino Ethylamino)4-Methyl 6-(4-Hydroxy Phenyl)Pyridazine] returned a Convulsivant threshold dose with mice [1] of more than 200 mg/kg. In series [2] (mice, 24 hours), the LD50 at 24 h is more than 200 mg/kg.

(Values after patent US4508720A, “Amino derivatives of pyridazine, and compositions thereof for the central nervous system” (Sanofi, priority 1981, dated 1985).)
